Test results as given in PMC9993459, “A novel selective spleen tyrosine kinase inhibitor SKI-O-703 (cevidoplenib) ameliorates lupus nephritis and serum-induced arthritis in murine models” (Clinical and Experimental Immunology, 2022).

Tests used:
mouse primary B cells = assay: CP670-dilution proliferation assay, BCR crosslinking (anti-IgM) stimulated B cells; type: cell-based; conditions: up to 1 μM
Method: Splenic CD19^+ B cells from C57BL/6 mice were sorted by MACS (Milteny Biotec), stained with 3 μM cell proliferation dye eFluor 670 (CP670; eBioscience), and cultured for 72 h in the presence of either 10 μg/ml LPS (Sigma Aldrich) or 5 μg/ml anti-mouse IgM (Jackson Immuno Research Laboratories), 10 μg/ml anti-CD40 mAb (Biolegend) and 10 ng/ml IL-4 (Peprotech), and assayed by FACS. To detect apoptotic cells, unstimulated cells were cultured for 24 h, stained with Annexin V and 7-aminoactinomycin D (7-AAD), and assayed by FACS.
Figure 2: in vitro effects of SKI-O -703 on the proliferation, survival, and differentiation of B cells. Mouse primary B cells were labeled with CP670, and stimulated with either anti-IgM mAb, CD40L and IL-4 (A) or LPS (B) for 72 h in the presence or absence of SKI-O-703 and tofacitinib at the indicated concentrations; they were then assayed by FACS. (C and D) Mouse primary B cells were cultured as in A and B for 24 h, stained with Annexin V and 7-AAD, and assayed by FACS. Representative FACS profiles and graphs displaying mean Annexin V-positivity are shown. (E) Human primary B cells were stimulated with CpG ODN plus IL-2 (to detect IgM and IgG) or CpG ODN 2006 plus IFN-α (to detect IL-6) in the presence or absence of inhibitors. The culture supernatants were assayed by ELISA. Graphs are expressed as % positivity relative to the controls (without inhibitor). […]

human primary B cells = assay: IgM, IgG and IL-6 secretion by stimulated human primary B cells (ELISA); type: cell-based; conditions: human primary B cells
Method: Human CD19^+ B cells (Lonza) were pre-treated with inhibitors for 1 h and stimulated for 24 h with 50 nM CpG ODN 2006 plus 10 ng/ml IL-2 or 1 μM CpG ODN 2006 plus 20 ng/ml IFN-α. Culture supernatants were assayed by ELISA to detect secreted IgG, IgM, and IL-6, according to the manufacturer’s instructions.
Figure 2: in vitro effects of SKI-O -703 on the proliferation, survival, and differentiation of B cells. Mouse primary B cells were labeled with CP670, and stimulated with either anti-IgM mAb, CD40L and IL-4 (A) or LPS (B) for 72 h in the presence or absence of SKI-O-703 and tofacitinib at the indicated concentrations; they were then assayed by FACS. (C and D) Mouse primary B cells were cultured as in A and B for 24 h, stained with Annexin V and 7-AAD, and assayed by FACS. Representative FACS profiles and graphs displaying mean Annexin V-positivity are shown. (E) Human primary B cells were stimulated with CpG ODN plus IL-2 (to detect IgM and IgG) or CpG ODN 2006 plus IFN-α (to detect IL-6) in the presence or absence of inhibitors. The culture supernatants were assayed by ELISA. Graphs are expressed as % positivity relative to the controls (without inhibitor). The data are representative of 2–3 independent experiments. *P < 0.05, **P < 0.01, and ***P < 0.001, compared with vehicle control by two-tailed unpaired Students t-tests.

NZB/W F1 mice = assay: NZB/W mouse model of SLE / lupus nephritis, oral dosing; type: in vivo; conditions: 30 mpk oral once daily
Method: NZB/W female mice aged 18 weeks were assigned to four groups by distributing mice by body weight and anti-dsDNA IgG titer equivalently across the groups. Each group of mice was administered orally with 42 mg per kg body weight (mpk) of SKI-O-703 dissolved in 50 mM citric acid, 84 mpk of SKI-O-703, 30 mpk of tofacitinib (Selleckchem) dissolved in 0.5% carboxymethyl cellulose (Sigma Aldrich) containing 0.025% Tween 20, or a mixture of the two vehicles. The drugs were given once daily up to 34 weeks of age. Body weight was measured every 2 weeks and serum was collected every 4 weeks. At the termination of the experiments (34 weeks of age), serum, urine, spleen, BM, and kidneys were removed post mortem and assayed by histopathological and biochemical methods as below. Levels of blood urea nitrogen (BUN) and creatinine were measured by Knotus (Incheon, Korea).
Kidneys removed from the NZB/W mice were fixed in 4% paraformaldehyde, embedded in paraffin, sectioned at 3 μm thickness, and stained with periodic acid-Schiff (PAS) and hematoxylin (Sigma Aldrich). […] Glomerular size was measured using Image J software. To assess the glomerular size and hypercellularity of each mouse, more than 20 glomeruli per mouse were individually examined and averaged.
Kidneys and spleens of NZB/W mice were embedded in OCT compound (Sakura Finetek, Torrance, CA, USA) and snap-frozen in liquid nitrogen. Frozen sections were fixed in acetone and blocked with 10% normal donkey serum (Sigma Aldrich). Kidney sections were stained with a 1:200 dilution of anti-IgG-biotin (Sigma Aldrich), anti-IgM-biotin (Southern Biotech) and anti-C3-biotin (Bioss), followed by reaction with 1:200-dilution of streptavidin-cy3 (Invitrogen). Spleen sections were stained with anti-GL7-FITC, anti-CD4-APC, and anti-IgD-PE (all from BD Biosciences or eBioscience). Fluorescence images were acquired using a TCS SP5 confocal microscope (Leica). The area of GCs composed with GL7^+ cells per image was calculated using ImageJ software (NIH, Bethesda, MD, USA).
Titers of anti-dsDNA IgG Ab were measured by ELISA, as described previously. In brief, sera were diluted 1/10 000 to 1/50 000 in PBS and applied to immunosorbent plates (Nunc) precoated with 5 μg/ml poly-L-lysine and 5 μg/ml thymic DNA (Sigma Aldrich). The serum containing the highest titer of anti-dsDNA IgG was serially diluted and used as standard. The plates were incubated with anti-mouse IgG-biotin (Sigma Aldrich) and streptavidin-HRP (BD Biosciences). The concentration of albumin in urine was measured by quantitative ELISA using a mouse albumin ELISA kit (Bethyl), according to the manufacturer’s instructions. The concentration of serum B-cell activating factor of the TNF family (BAFF) was quantitated using a BAFF/BLys/TNFSF13B ELISA Kit (R&D Systems).
Single-cell suspensions of spleen and LN cells were prepared as previously described. Joint tissues from hind paws of KSTA mice were dissected free of soft tissue and bones, digested with 100 μg/ml Liberase (Roche) for 45 min at 37 °C, and filtered through a 70-μm-pore cell strainer (SPL Life Sciences) to prepare single cell suspensions of synovial infiltrates. The single cell suspensions were stained with an appropriate combination of mAbs and analyzed by FACS. The mAbs used were: CD138-PE, B220-PerCP or -APC-cy7, FAS-PE, CD19-PerCP or -APC, CD21-FITC or -APC, CD43-APC, CD23-PE-cy7, CD8a-PE, CD25-APC-cy7, CXCR5-biotin, GL7-FITC, CD45.2-FITC, CD27-FITC, Ki-67-FITC, Gr-1-FITC, CD4-FITC or -APC-cy7, phospho-Syk-PE, CD11b-PE or -PerCP, PD-1-APC, CD44-APC-cy7, and F4/80-PerCP mAbs (all from BD Biosciences, eBioscience or Biolegend). Streptavidin-PerCP was purchased from BD Biosciences.
Splenic CD19^+ B cells from NZB/W mice were sorted by MACS, and lysed with Trizol reagent (Invitrogen) followed by standard methods of total RNA purification. The RNA was assayed by RT and quantitative PCR as described. […]

KOR = assay: Kinase assay (LANCE Ultra TR-FRET), KOR; type: biochemical; conditions: kinase activity, TR-FRET
Method: Kinase assays were conducted in 384-well plates using LANCE ultra 66 time-resolved fluorescence resonance energy transfer (TR-FRET) methods, according to the manufacturer’s instructions (Perkin-Elmer). In brief, each kinase was pre-incubated with a serially diluted compound for 30 min, incubated with ULight poly-GT peptide substrate and ATP for up to 1 h. Thirty minutes after adding Eu-labeled anti-phosphopeptides Ab diluted in LANCE Detection Buffer, LANCE signals were measured with an EnVision multilabel reader (Perkin-Elmer).

Row | Compound | Proliferation and death of primary B and T cells (mouse primary B cells) | IL-6 production (human primary B cells; CpG ODN 2006 plus IFN-α) | Ab production (human primary B cells; CpG ODN plus IL-2) | Body weights (NZB/W F1 mice; 18-34 weeks of age) | Spleen weights (NZB/W F1 mice; 18-34 weeks of age) | Serum anti-dsDNA IgG Ab titer (NZB/W F1 mice; trend to reduction at 26 and 30 weeks of age) | IC50 (KOR)
1 | C[C@@H]1CCN(C(=O)CC#N)C[C@@H]1N(C)c1ncnc2[nH]ccc12 [tofacitinib, reference compound] | did not significantly inhibit | even increased IL-6 production | minimal effect | reduced both body weights and spleen weights | reduced both body weights and spleen weights | did not reach statistical significance | 
2 | COc1cc(Nc2ncc(F)c(Nc3ccc4c(n3)NC(=O)C(C)(C)O4)n2)cc(OC)c1OC [R406, reference compound] |  |  |  |  |  |  | 18.8 nM
